From patent publication EP1038516A1, “Cosmetic composition comprising kynurenine” (Uchikuga, Saburoh, priority 1999, dated 2000)
Several values for one entry are separate records, joined by “and”; a condition that tells them apart may be missing. Equal entries are not always repeated.

Key:
[1] = system: tyrosinase; test: Test Example 1: disappearance of kynurenine / 3-hydroxykynurenine and pigment generation with tyrosinase and dopa or tyrosine; type: biochemical; settings: 3.5 hours; for disappearance of kynurenine or 3-hydroxykynurenine: assayed at 355 nm
Procedure: 5 units of tyrosinase, 2.5 µmol of dopa or tyrosine, and 1 mg of kynurenine sulfate salt or 3-hydroxykynurenine dihydrate were dissolved in 0.1M phosphate buffer, pH 7.0 to a final volume of 5 ml and the resulting solution was agitated at ambient temperature for 3.5 hours; thereafter, the disappearance of kynurenine or 3-hydroxykynurenine was assayed at 355 nm, which corresponds to the λmax of kynurenine and 3-hydroxykynurenine in UV-A. The contents of the individual tests are shown below in Table 2. Table 2 [table]

[2] = Ultraviolet absorption (maximum absorption wavelength and molecular extinction coefficient); type: physicochemical; settings: for Maximum absorption wavelength (λmax): UV-A region (320 to 380 nm); for Molecular extinction coefficient (ε): at λmax in the UV-A region
Source text: The properties of kynurenine and the derivative thereof are collectively shown below in Table 1, along with the properties of "Palsole A". As apparently shown in the table and Fig. 1, the maximum absorption lengths (λmax) of kynurenine and the derivative thereof preferably reside in 360 to 365 nm in the UV-A region (320 to 380 nm) with the highest risk of direct darkening of skin. Kynurenine has a molecular extinction coefficient (ε) functioning as a marker of the intensity of ultraviolet absorption (ε = 4,000), which is about 1/10 of the commercially available Palsole A (ε = 36,000). […] Accordingly, such large quantity considered abnormal is required to be blended. Table 1 In addition to the UV-A region, kynurenine and the derivative thereof have the maximum absorption wavelength at 253 nm with the molecular extinction coefficient of 6,700. In other words, kynurenine and the derivative thereof exert absorption in the UV-C region ([…]). The ultraviolet ray in the UV-C region is generally absorbed in the ozone layer and therefore never reaches ground surface, so the absorption in the region is not meaningful as cosmetics. Kynurenine and the derivative thereof never exert absorption in the UV-B region (290 to 320 nm) in the erythema curve region with the highest risk in sunlight. Thus, an effect on the prevention of erythema against ultraviolet ray in the UV-B region cannot be expected.

[3] = system: tyrosinase; test: Tyrosinase activity-inhibiting effect; type: biochemical
Source text: It was expectantly assumed that kynurenine and the derivative thereof inhibited tyrosinase and thereby suppressed the generation of black melanin so that kynurenine and the derivative thereof could be utilized as an ingredient for preventing spot and freckle and the deposition of pigments.

[4] = system: 5 bacterial strains; test: Ames test (mutagenicity); type: cell-based
Source text: The kynurenine represented by the general formula I and substances relating thereto are metabolic intermediates of tryptophan and are essentially present in biological organisms; and the kynurenine and substances relating thereto are contained at particularly large quantities in the eyes of human new born babies and infants but are decreased over aging [J. Biochem., Vol. 89, 103 (1981)], and have therefore no safety problem.
The generated brown pigment is present in the eye, skin and wing of Arthropoda and Mollusca. The brown pigment is also contained in human eye. Because the brown pigment is widely distributed in animals in such manner, the generated pigment is greatly safe. The brown pigment (xanthommatin) was chemically synthesized according to the method in Angew. Chem., 69, Jahrg. 16 (1957) and subjected to Ames test.

[5] = Tests 1 and 2: tyrosinase +, dopa/tyrosine +, air +, pH 7.0, ambient temperature

Row | SMILES | disappearance of kynurenine or 3-hydroxykynurenine ([1]; Test 3: tyrosinase with thermal treatment, dopa/tyrosine +, air +) | disappearance of kynurenine or 3-hydroxykynurenine ([1]; Test 4: tyrosinase +, no dopa/tyrosine, air +) | pigment generation [1, 5] | disappearance of kynurenine or 3-hydroxykynurenine [1, 5] | Maximum absorption wavelength (λmax) [2] [nm] | Molecular extinction coefficient (ε) [2] | disappearance of kynurenine or 3-hydroxykynurenine ([1]; Test 5: tyrosinase +, dopa/tyrosine +, no air) | tyrosinase-inhibiting ability [3] | molecular extinction coefficient (ε) relative to Palsole A ([2]; UV-A region) | mutagenicity [4]
1 | Nc1c(O)cccc1C(=O)CC(N)C(=O)O (stereo not drawn) [3-hydroxykynurenine] | no disappearance of 3-hydroxykynurenine observed. | no disappearance of 3-hydroxykynurenine observed. | pigment generated | disappeared | 355 |  |  |  |  | 
2 | COc1ccc(C(=O)CC(=O)c2ccc(C(C)(C)C)cc2)cc1 [Palsole A, reference compound] |  |  |  |  | 355 | 36,000 and 35,000 |  |  |  | 
3 | Nc1ccccc1C(=O)CC(N)C(=O)O (stereo not drawn) [kynurenine] |  |  | pigment generated | disappeared | 355 | 4,000 | no disappearance of kynurenine observed. | never has any ability of tyrosinase inhibition or has the ability insufficiently | about 1/10 | 
4 | NC(CC(=O)c1cccc2oc3cc(=O)c4[nH]c(C(=O)O)cc(=O)c4c-3nc12)C(=O)O (stereo not drawn) [xanthommatin] |  |  |  |  |  |  |  |  |  | No mutagenicity was observed
